Earlier results, collected in paper PMC7178755 (Toxicology and applied pharmacology, 2019).
Like-named read-outs stand apart in the source and are kept apart here. Marks after values point to notes of the source that are not given here.

Experiments:
[1] = free BPA; female Rhesus Monkeys; 0.4 mg/kg oral; ref Taylor et al., (2015); cited from earlier work
[2] = free BPA; female SD rats; 0.1 mg/kg gavage; ref Dorege et al., (2010); cited from earlier work
[3] = free BPA; female CD-1 mice; 100 mg/kg gavage; ref Taylor et al., (2015); cited from earlier work
[4] = rat uterotrophic assay; administered orally; ref Conley et al., 2016; cited from earlier work
[5] = rat, in vivo, 100 mg/kg; cited from earlier work

Row | Compound | AUC0−∞ [1] | Cmax [1] [nM] | Half-life (terminal, beta) [1] [h] | Tmax [1] [h] | AUC0−∞ [2] | Cmax [2] [nM] | Dose-normalized AUC0−∞ [2] | Dose-normalized Cmax [2] | AUC0−∞ [3] | Cmax [3] [nM] | Dose-normalized AUC0−∞ [3] | Dose-normalized Cmax [3] | Tmax [3] [h] | ED50 [4] [mg/kg/day] | time of maximum plasma concentration [5] [min]
1 | CC(C)(c1ccc(O)cc1)c1ccc(O)cc1 [BPA, bisphenol A] | 0.0589^i nmol.h/mL | 17.3 | 8.88 | 1 | 0.0026^g nmol.h/mL | 0.39 | 5.91 (nmol.h/mL)/(mmol/kg) | 0.886 (nmol/mL)/(mmol/kg) | 13.1^i nmol.h/mL | 4160 | 29.8 (nmol.h/mL)/(mmol/kg) | 9.47 (nmol/mL)/(mmol/kg) | 1 | 1118.0 | 
2 | O=C(O)[C@H]1O[C@@H](Oc2ccc(C(c3ccc(O)cc3)(C(F)(F)F)C(F)(F)F)cc2)[C@H](O)[C@@H](O)[C@@H]1O [BPAF-glucuronide] |  |  |  |  |  |  |  |  |  |  |  |  |  |  | 30
